Our source for the IC50 values is ChEMBL document CHEMBL1127704 (J Med Chem, 1994).

Each structure is given as a SMILES string. pIC50: −log10 of the molar value.

The target in experiment [1] is T1, Dihydrofolate reductase (Rattus norvegicus, UniProt Q920D2).
T1 sequence (Q920D2 whole entry): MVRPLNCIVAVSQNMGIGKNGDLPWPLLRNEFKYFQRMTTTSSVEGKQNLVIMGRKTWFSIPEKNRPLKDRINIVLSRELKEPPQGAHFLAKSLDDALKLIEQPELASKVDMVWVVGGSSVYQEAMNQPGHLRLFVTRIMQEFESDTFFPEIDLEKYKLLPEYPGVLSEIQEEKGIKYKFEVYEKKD
Description: Inhibition of Dihydrofolate reductase (DHFR) of in rat liver

Experiment [2] concerns the target T2, Dihydrofolate reductase (Pneumocystis carinii, UniProt P16184).
T2 sequence (P16184 whole entry): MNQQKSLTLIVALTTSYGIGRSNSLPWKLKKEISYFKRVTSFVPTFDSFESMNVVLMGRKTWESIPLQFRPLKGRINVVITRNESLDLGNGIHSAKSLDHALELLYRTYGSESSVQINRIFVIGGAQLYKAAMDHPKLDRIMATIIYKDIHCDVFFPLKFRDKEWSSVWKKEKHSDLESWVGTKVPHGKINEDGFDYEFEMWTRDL
Description: Inhibition of Dihydrofolate reductase of Pneumocystis carinii

The target in experiment [3] is T3, Bifunctional dihydrofolate reductase-thymidylate synthase (Toxoplasma gondii, UniProt Q07422).
T3 sequence (Q07422 whole entry): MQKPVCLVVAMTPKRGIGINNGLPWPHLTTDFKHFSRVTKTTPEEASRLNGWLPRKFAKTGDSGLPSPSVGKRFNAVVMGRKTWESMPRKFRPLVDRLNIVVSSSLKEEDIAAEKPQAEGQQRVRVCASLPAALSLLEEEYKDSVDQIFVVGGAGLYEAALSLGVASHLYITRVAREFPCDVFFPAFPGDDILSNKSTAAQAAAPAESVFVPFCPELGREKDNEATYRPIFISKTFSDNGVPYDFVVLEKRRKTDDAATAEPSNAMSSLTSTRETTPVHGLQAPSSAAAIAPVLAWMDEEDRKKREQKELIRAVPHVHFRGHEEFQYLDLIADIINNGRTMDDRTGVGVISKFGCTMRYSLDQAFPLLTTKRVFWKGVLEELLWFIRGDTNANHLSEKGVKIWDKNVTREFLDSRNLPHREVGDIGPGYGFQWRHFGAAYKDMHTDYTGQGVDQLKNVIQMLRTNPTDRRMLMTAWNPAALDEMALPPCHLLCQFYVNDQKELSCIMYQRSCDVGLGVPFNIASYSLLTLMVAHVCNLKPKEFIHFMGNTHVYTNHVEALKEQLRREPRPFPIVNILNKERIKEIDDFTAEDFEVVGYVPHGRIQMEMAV
Description: Inhibition of Dihydrofolate reductase of Toxoplasma gondii

One may read the pIC50 as −log10 of the IC50, conventionally taken in molar units. Read a high pIC50 as a low IC50. Consider `COc1cc(NCc2ccc3nc(N)nc(N)c3c2Cl)cc(OC)c1OC`, for which the pIC50 against Dihydrofolate reductase [1] was 8.23; on Dihydrofolate reductase [2], 7.48; in experiment [3] it was 8.28.

For `COc1ccc(OC)c(CCNc2ccc3nc(N)nc(N)c3c2Cl)c1`, the results for the pIC50 (against Dihydrofolate reductase [2]; in experiment [3]) were 4.92 and 6.00, respectively.

In the case of `COc1ccc(OC)c(CCCNc2ccc3nc(N)nc(N)c3c2Cl)c1`, the results for the pIC50 (against Dihydrofolate reductase [1]; at Dihydrofolate reductase [2]; in experiment [3]) were 5.72, 4.59 and 6.00, respectively.

In turn, `COc1cc(N(C)Cc2ccc3nc(N)nc(N)c3c2Cl)cc(OC)c1OC` gave a pIC50 in experiment [3] of 8.19.

Consider `COc1cc(CCNc2ccc3nc(N)nc(N)c3c2Cl)cc(OC)c1OC`, for which the pIC50 on Dihydrofolate reductase [1] is 5.27; against Dihydrofolate reductase [2], 4.37; in experiment [3] it was 5.59.

Take `COc1ccc(OC)c(CNc2ccc3nc(N)nc(N)c3c2Cl)c1`: the pIC50 on Dihydrofolate reductase [1] is 7.55; on Dihydrofolate reductase [2], 7.28; in experiment [3], 7.77.

On to `COc1cc(CN(C)c2ccc3nc(N)nc(N)c3c2Cl)cc(OC)c1OC`, for which the pIC50 against Dihydrofolate reductase [1] is 7.42; against Dihydrofolate reductase [2] it was 6.77; in experiment [3] it was 7.80.

On to `COc1cc(CCCNc2ccc3nc(N)nc(N)c3c2Cl)cc(OC)c1OC`, for which the values for the pIC50 (on Dihydrofolate reductase [2]; in experiment [3]) were 4.02 and 4.85, respectively.

For the compound `COc1ccc(OC)c(NCc2ccc3nc(N)nc(N)c3c2Cl)c1`, the pIC50 against Dihydrofolate reductase [1] is 7.36; against Dihydrofolate reductase [2] it was 7.29; in experiment [3], 7.52.

As to `COc1cc(CNc2ccc3nc(N)nc(N)c3c2Cl)cc(OC)c1OC`, the values for the pIC50 (against Dihydrofolate reductase [1]; at Dihydrofolate reductase [2]; in experiment [3]) were 8.22, 7.48 and 8.15, respectively.
